# Reference: paper PMC3434039, “Overexpression of an exotic thermotolerant β-glucosidase in trichoderma reesei and its significant increase in cellulolytic activity and saccharification of barley straw” (Microbial Cell Factories, 2012)
# Molecular target: T1, Periconia sp. BGLI (recombinant β-glucosidase, bgl1) (Periconia sp. BCC 2871, UniProt A9UIG0, T284I/N305T)
# T1 construct: full-length bgl1 (2601 bp cDNA, own signal peptide) expressed in T. reesei QM9414 under tef1 promoter, secreted, culture supernatant; predicted about 95 kDa, glycosylated
# Test: MUG zymogram after native PAGE of culture supernatant
# Type: biochemical
# Conditions: 5 mM MUG, 50 mM sodium citrate, pH 5.0, 70 °C, 10 min
# From the text: MUG zymogram after native PAGE of culture supernatant on Periconia sp.
# T1 sequence (A9UIG0 entry or part of it T284I/N305T): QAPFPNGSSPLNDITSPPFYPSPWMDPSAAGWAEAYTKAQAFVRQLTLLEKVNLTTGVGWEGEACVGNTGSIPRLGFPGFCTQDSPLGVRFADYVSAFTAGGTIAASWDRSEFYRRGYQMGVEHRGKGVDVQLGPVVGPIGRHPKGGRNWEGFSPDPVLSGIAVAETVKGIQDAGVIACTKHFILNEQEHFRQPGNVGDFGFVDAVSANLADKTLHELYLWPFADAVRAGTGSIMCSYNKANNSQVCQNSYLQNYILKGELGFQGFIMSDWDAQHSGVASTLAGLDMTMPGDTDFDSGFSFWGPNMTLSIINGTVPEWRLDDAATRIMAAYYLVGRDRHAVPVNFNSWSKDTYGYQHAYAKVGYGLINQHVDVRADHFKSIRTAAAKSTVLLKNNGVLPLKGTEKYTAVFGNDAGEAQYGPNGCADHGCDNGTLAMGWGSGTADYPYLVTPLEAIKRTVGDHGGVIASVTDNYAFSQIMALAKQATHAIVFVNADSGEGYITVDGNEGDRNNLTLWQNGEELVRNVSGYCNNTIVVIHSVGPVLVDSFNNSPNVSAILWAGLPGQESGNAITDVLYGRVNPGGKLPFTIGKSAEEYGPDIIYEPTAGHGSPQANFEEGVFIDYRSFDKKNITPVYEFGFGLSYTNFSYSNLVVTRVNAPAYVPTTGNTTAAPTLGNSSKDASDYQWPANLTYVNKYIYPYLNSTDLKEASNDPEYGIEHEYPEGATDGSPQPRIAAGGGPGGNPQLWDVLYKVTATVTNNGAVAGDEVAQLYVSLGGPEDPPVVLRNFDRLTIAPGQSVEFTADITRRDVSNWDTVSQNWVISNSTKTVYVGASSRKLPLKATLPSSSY
smiles,measurement,value
Cc1cc(=O)oc2cc(O[C@@H]3O[C@H](CO)[C@@H](O)[C@H](O)[C@H]3O)ccc12 [4-methylumbelliferyl β-D-glucopyranoside],MUG zymogram after native PAGE of culture supernatant,second active β- glucosidase with higher molecular weight was only obtained from the transformants
